Marks after values point to notes of the source that are not given here.
Tests used:
[1] = system: NCI-H322 (non-small cell lung carcinoma); assay: NCI H322 subcutaneous human xenograft mouse model, tumor growth; assay type: in vivo, SCID mice; details: for tumor growth inhibition: monotherapy, FIG. 2, range over doses
Description: NCI H322 cells obtained from the ATCC and were cultured in RPMI 1640+10% Fetal bovine serum, Sodium pyruvate and L-Glutamine at […] in a 95/5% air/CO2 atmosphere. Cells were harvested following trypsin digestion and brought to a density of 2×10^6 cells/200 μl in PBS. Tumors were initiated by injection of the cell suspension subcutaneously in the axillary region. In addition some experiments were performed following serial transplantation of tumor fragments in SCID mice. Tumors were initiated by injection of tumor fragments subcutaneously in the axillary region.
(§1) For the xenograft models used here, solid tumors were measured by electronic caliper measurement through the skin. Measurements were typically made twice weekly.
Drugs were administered by P.O. route. […] These studies were performed under IACUC #468 and 603.
Data are presented as percent inhibition of tumor growth, as compared to vehicle.

[2] = system: BT474 (human breast tumor line); assay: BT474 subcutaneous human xenograft mouse model, tumor growth; assay type: in vivo, SCID mice; details: for tumor growth inhibition: monotherapy, FIG. 1, range over doses
Description: The BT474 xenografts were maintained by serial transplantation of tumor fragments in SCID mice. Tumors are initiated by injection of tumor fragments subcutaneously in the axillary region.
as §1
Drugs were administered by P.O. route. […] These studies were performed under IACUC #468 and 603. The results are illustrated in Tables 1-4, and FIGS. 1 and 2. FIGS. 1 and 2 are the graphical representation of the data contained in Tables 3 and 4, respectively.
The column labeled “Exp. 1” contains the results presented in FIG. 1 for the last data point on the graph. The column labeled “Exp. 2” contains analogous results from an independent experiment. Data are presented as percent inhibition of tumor growth, as compared to vehicle.

[3] = Exp. 1, Example 1 30 mg/kg P.O. once daily
[4] = Exp. 1, Example 1 100 mg/kg P.O. once daily
[5] = Exp. 2, Example 1 30 mg/kg P.O. once daily
[6] = Exp. 2, Example 1 100 mg/kg P.O. once daily
[7] = Exp. 1, Example 3 60 mg/kg P.O. once daily

SMILES: Cc1ccc(Nc2nccc(N(C)c3ccc4c(C)n(C)nc4c3)n2)cc1S(N)(=O)=O [Example 1, 5-({4-[(2,3-dimethyl-2H-indazol-6-yl)(methyl)amino]pyrimidin-2-yl}amino)-2-methylbenzenesulfonamide]
- Mean tumor volume ([1]; Day 29, Ex. 1 30 mg/kg): 182 mm^3
- Mean tumor volume ([1]; Day 29, Ex. 1 100 mg/kg): 166 mm^3
- Mean tumor volume ([1]; Day 34, Ex. 1 30 mg/kg): 351 mm^3
- Mean tumor volume ([1]; Day 34, Ex. 1 100 mg/kg): 268 mm^3
- Mean tumor volume ([1]; Day 37, Ex. 1 30 mg/kg): 358 mm^3
- Mean tumor volume ([1]; Day 37, Ex. 1 100 mg/kg): 266 mm^3
- Mean tumor volume ([1]; Day 41, Ex. 1 30 mg/kg): 329 mm^3
- Mean tumor volume ([1]; Day 41, Ex. 1 100 mg/kg): 316 mm^3
- Mean tumor volume ([1]; Day 44, Ex. 1 30 mg/kg): 309 mm^3
- Mean tumor volume ([1]; Day 44, Ex. 1 100 mg/kg): 312 mm^3
- Mean tumor volume ([1]; Day 48, Ex. 1 30 mg/kg): 377 mm^3
- Mean tumor volume ([1]; Day 48, Ex. 1 100 mg/kg): 297 mm^3
- Mean tumor volume ([1]; Day 51, Ex. 1 30 mg/kg): 389 mm^3
- Mean tumor volume ([1]; Day 51, Ex. 1 100 mg/kg): 313 mm^3
- percent inhibition of tumor growth, as compared to vehicle [1, 3]: 34%
- percent inhibition of tumor growth, as compared to vehicle [1, 4]: 56* %
- percent inhibition of tumor growth, as compared to vehicle [1, 5]: 20%
- percent inhibition of tumor growth, as compared to vehicle [1, 6]: 62%
- percent inhibition of tumor growth, as compared to vehicle ([1]; Exp. 3, Example 1 30 mg/kg P.O. once daily): 86* %
- percent inhibition of tumor growth, as compared to vehicle ([1]; Exp. 3, Example 1 100 mg/kg P.O. once daily): 88* %
- tumor growth inhibition [1]: 86-88%
- Mean tumor volume ([2]; Day 36, Ex. 1 30 mg/kg): 281 mm^3
- Mean tumor volume ([2]; Day 36, Ex. 1 100 mg/kg): 293 mm^3
- Mean tumor volume ([2]; Day 38, Ex. 1 30 mg/kg): 406 mm^3
- Mean tumor volume ([2]; Day 38, Ex. 1 100 mg/kg): 417 mm^3
- Mean tumor volume ([2]; Day 41, Ex. 1 30 mg/kg): 481 mm^3
- Mean tumor volume ([2]; Day 41, Ex. 1 100 mg/kg): 453 mm^3
- Mean tumor volume ([2]; Day 44, Ex. 1 30 mg/kg): 601 mm^3
- Mean tumor volume ([2]; Day 44, Ex. 1 100 mg/kg): 519 mm^3
- Mean tumor volume ([2]; Day 49, Ex. 1 30 mg/kg): 722 mm^3
- Mean tumor volume ([2]; Day 49, Ex. 1 100 mg/kg): 519 mm^3
- Mean tumor volume ([2]; Day 52, Ex. 1 30 mg/kg): 777 mm^3
- Mean tumor volume ([2]; Day 52, Ex. 1 100 mg/kg): 515 mm^3
- Mean tumor volume ([2]; Day 55, Ex. 1 30 mg/kg): 860 mm^3
- Mean tumor volume ([2]; Day 55, Ex. 1 100 mg/kg): 496 mm^3
- Mean tumor volume ([2]; Day 57, Ex. 1 30 mg/kg): 954 mm^3
- Mean tumor volume ([2]; Day 57, Ex. 1 100 mg/kg): 513 mm^3
- percent inhibition of tumor growth, as compared to vehicle [2, 3]: 16%
- percent inhibition of tumor growth, as compared to vehicle [2, 4]: 78* %
- percent inhibition of tumor growth, as compared to vehicle [2, 5]: 47* %
- percent inhibition of tumor growth, as compared to vehicle [2, 6]: 64* %
- tumor growth inhibition [2]: 16-78%

SMILES: CS(=O)(=O)CCNCc1ccc(-c2ccc3ncnc(Nc4ccc(OCc5cccc(F)c5)c(Cl)c4)c3c2)o1 [Example 3, N-{3-Chloro-4-[(3-fluorobenzyl)oxy]phenyl}-6-[5-({[2-(methanesulphonyl)ethyl]amino}methyl)-2-furyl]-4-quinazolinamine]
- Mean tumor volume ([1]; Day 29, Ex. 3 20 mg/kg): 167 mm^3
- Mean tumor volume ([1]; Day 29, Ex. 3 60 mg/kg): 175 mm^3
- Mean tumor volume ([1]; Day 34, Ex. 3 20 mg/kg): 288 mm^3
- Mean tumor volume ([1]; Day 34, Ex. 3 60 mg/kg): 252 mm^3
- Mean tumor volume ([1]; Day 37, Ex. 3 20 mg/kg): 403 mm^3
- Mean tumor volume ([1]; Day 37, Ex. 3 60 mg/kg): 313 mm^3
- Mean tumor volume ([1]; Day 41, Ex. 3 20 mg/kg): 511 mm^3
- Mean tumor volume ([1]; Day 41, Ex. 3 60 mg/kg): 400 mm^3
- Mean tumor volume ([1]; Day 44, Ex. 3 20 mg/kg): 616 mm^3
- Mean tumor volume ([1]; Day 48, Ex. 3 20 mg/kg): 837 mm^3
- Mean tumor volume ([1]; Day 48, Ex. 3 60 mg/kg): 577 mm^3
- Mean tumor volume ([1]; Day 51, Ex. 3 20 mg/kg): 871 mm^3
- Mean tumor volume ([1]; Day 51, Ex. 3 60 mg/kg): 649 mm^3
- percent inhibition of tumor growth, as compared to vehicle [1, 7]: 75* %
- percent inhibition of tumor growth, as compared to vehicle ([1]; Exp. 2, Example 3 20 mg/kg P.O. once daily): 31%
- percent inhibition of tumor growth, as compared to vehicle ([1]; Exp. 3, Example 3 20 mg/kg P.O. once daily): 28%
- percent inhibition of tumor growth, as compared to vehicle ([1]; Exp. 3, Example 3 60 mg/kg P.O. once daily): 54%
- tumor growth inhibition [1]: 28-54%
- Mean tumor volume ([2]; Day 36, Ex. 3 60 mg/kg): 235 mm^3
- Mean tumor volume ([2]; Day 36, Ex. 3 200 mg/kg): 219 mm^3
- Mean tumor volume ([2]; Day 38, Ex. 3 60 mg/kg): 328 mm^3
- Mean tumor volume ([2]; Day 38, Ex. 3 200 mg/kg): 262 mm^3
- Mean tumor volume ([2]; Day 41, Ex. 3 60 mg/kg): 367 mm^3
- Mean tumor volume ([2]; Day 41, Ex. 3 200 mg/kg): 184 mm^3
- Mean tumor volume ([2]; Day 44, Ex. 3 60 mg/kg): 485 mm^3
- Mean tumor volume ([2]; Day 44, Ex. 3 200 mg/kg): 242 mm^3
- Mean tumor volume ([2]; Day 49, Ex. 3 60 mg/kg): 554 mm^3
- Mean tumor volume ([2]; Day 49, Ex. 3 200 mg/kg): 288 mm^3
- Mean tumor volume ([2]; Day 52, Ex. 3 60 mg/kg): 633 mm^3
- Mean tumor volume ([2]; Day 52, Ex. 3 200 mg/kg): 270 mm^3
- Mean tumor volume ([2]; Day 55, Ex. 3 60 mg/kg): 763 mm^3
- Mean tumor volume ([2]; Day 55, Ex. 3 200 mg/kg): 219 mm^3
- Mean tumor volume ([2]; Day 57, Ex. 3 60 mg/kg): 878 mm^3
- Mean tumor volume ([2]; Day 57, Ex. 3 200 mg/kg): 214 mm^3
- percent inhibition of tumor growth, as compared to vehicle [2, 7]: 21%
- percent inhibition of tumor growth, as compared to vehicle ([2]; Exp. 1, Example 3 200 mg/kg P.O. once daily): 99* %
- percent inhibition of tumor growth, as compared to vehicle ([2]; Exp. 2, Example 3 60 mg/kg P.O. once daily): 58* %
- percent inhibition of tumor growth, as compared to vehicle ([2]; Exp. 2, Example 3 200 mg/kg P.O. once daily): 85* %
- tumor growth inhibition [2]: 21-99%
